Assay results taken from patent publication US12427210B2, “Compounds comprising a fibroblast activation protein ligand and use thereof” (priority 2019, dated 2025).
Numbered stars: 1 amine (or outer) side, 2 acyl side, 3 side chain; on linkers, the order of the positions; unused ones are H or OH. Bridge positions count the residues as written; N and C are the ends. Peptide text beside a SMILES is read from it. * marks the point of attachment. X1 = O=C(O)CN1CCN(CC(=O)O)CCN(CC(=O)N2CCN(Cc3cc(C[*:1])cc(C[*:2])c3)CC2)CCN(CC(=O)O)CC1; Hexanoyl = CCCCCC(=O)*

How the values were obtained:
DPP7 = DPP7 (Homo sapiens, UniProt Q9UHL4); assay: biochemical; conditions: read-out: Percentage inhibition (%)
GR (h) = GR (h) (Homo sapiens, UniProt P04150); assay: biochemical; conditions: read-out: % Inhibition of Specific Binding
Chain of GR (h) (P04150 whole entry): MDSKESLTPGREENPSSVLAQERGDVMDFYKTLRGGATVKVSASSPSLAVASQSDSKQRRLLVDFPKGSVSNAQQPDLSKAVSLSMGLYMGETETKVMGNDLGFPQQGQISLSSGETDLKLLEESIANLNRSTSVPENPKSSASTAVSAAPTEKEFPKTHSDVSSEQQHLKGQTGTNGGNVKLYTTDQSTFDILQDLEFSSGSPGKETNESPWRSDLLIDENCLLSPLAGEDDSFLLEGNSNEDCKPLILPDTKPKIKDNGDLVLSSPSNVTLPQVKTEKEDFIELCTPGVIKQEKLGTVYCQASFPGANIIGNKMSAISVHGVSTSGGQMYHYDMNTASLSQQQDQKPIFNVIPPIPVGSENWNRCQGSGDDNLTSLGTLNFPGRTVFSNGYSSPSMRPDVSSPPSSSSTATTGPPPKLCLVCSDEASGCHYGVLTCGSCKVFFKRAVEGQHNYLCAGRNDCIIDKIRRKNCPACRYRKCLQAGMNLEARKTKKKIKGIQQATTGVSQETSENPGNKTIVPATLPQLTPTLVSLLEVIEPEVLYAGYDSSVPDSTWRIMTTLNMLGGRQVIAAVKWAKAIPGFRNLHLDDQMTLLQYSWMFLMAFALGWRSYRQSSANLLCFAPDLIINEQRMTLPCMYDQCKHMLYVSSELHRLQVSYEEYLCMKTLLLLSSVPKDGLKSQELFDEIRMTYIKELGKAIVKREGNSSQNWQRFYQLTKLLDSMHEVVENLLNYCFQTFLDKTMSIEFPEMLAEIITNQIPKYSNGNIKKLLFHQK

beta 2 (h) = beta 2 (h) (Homo sapiens, UniProt P07550); assay: biochemical; conditions: read-out: % Inhibition of Specific Binding
Chain of beta 2 (h) (P07550 whole entry): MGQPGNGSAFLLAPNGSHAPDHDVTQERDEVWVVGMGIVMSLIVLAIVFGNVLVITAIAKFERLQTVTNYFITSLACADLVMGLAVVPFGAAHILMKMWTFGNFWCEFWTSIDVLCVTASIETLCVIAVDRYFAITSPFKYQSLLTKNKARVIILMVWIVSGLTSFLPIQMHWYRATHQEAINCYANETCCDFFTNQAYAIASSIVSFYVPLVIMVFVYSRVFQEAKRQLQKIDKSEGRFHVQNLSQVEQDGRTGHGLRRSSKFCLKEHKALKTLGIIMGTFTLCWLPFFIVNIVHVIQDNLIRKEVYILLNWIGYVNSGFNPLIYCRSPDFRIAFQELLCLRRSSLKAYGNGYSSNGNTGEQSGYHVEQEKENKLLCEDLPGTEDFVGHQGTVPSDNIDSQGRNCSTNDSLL

[1] = biological target: serine protease NS3 (a.a. 3-181) from Hepatitis C virus genotype 2a (Hepatitis C virus genotype 2a, UniProt Q99IB8); assay: biochemical; conditions: read-out: Percentage inhibition (%)
Chain of serine protease NS3 (a.a. 3-181) from Hepatitis C virus genotype 2a (Q99IB8 1033-1211 limits assumed, other chains not shown): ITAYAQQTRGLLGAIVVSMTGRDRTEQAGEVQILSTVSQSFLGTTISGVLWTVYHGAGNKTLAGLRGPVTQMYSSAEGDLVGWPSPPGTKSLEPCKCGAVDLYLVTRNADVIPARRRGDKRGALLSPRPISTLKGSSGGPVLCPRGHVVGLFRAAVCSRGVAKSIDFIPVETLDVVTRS

Cathepsin F = biological target: T1, Cathepsin F (Homo sapiens, UniProt Q9UBX1); assay: biochemical; conditions: read-out: Percentage inhibition (%)
T1 sequence (Q9UBX1 271-484): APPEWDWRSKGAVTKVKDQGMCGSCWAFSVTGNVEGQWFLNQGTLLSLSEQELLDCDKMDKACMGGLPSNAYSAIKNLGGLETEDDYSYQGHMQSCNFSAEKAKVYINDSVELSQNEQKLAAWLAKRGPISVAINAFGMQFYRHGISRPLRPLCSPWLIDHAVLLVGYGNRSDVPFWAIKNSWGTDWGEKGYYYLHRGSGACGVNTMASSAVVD

dopamine transporter (h) = dopamine transporter (h) (Homo sapiens, UniProt Q01959); assay: biochemical; conditions: read-out: % Inhibition of Specific Binding
5-HT3 (h) = 5-HT3 (h) (Homo sapiens, UniProt P46098); assay: biochemical; conditions: read-out: % Inhibition of Specific Binding
Chain of 5-HT3 (h) (P46098 24-478): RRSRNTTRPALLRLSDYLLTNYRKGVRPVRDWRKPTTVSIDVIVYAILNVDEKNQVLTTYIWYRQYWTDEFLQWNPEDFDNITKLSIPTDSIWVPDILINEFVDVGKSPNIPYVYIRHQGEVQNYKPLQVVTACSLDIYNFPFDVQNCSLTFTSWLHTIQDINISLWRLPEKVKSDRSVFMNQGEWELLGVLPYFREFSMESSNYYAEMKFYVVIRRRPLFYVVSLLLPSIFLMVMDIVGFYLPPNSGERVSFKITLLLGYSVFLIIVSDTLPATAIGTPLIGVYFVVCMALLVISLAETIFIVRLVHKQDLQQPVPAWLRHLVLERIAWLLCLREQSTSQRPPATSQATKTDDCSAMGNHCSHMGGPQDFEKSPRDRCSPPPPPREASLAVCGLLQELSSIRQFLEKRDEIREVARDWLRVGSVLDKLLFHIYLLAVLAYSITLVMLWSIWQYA

PDE3A (h) = PDE3A (h) (Homo sapiens, UniProt Q14432); assay: biochemical; conditions: read-out: % Inhibition of Specific Binding
kappa (h) (KOP) = kappa (h) (KOP) (Homo sapiens, UniProt P41145); assay: biochemical; conditions: read-out: % Inhibition of Specific Binding
5-HT1B (h) = 5-HT1B (h) (Homo sapiens, UniProt P28222); assay: biochemical; conditions: read-out: % Inhibition of Specific Binding
Chain of 5-HT1B (h) (P28222 whole entry): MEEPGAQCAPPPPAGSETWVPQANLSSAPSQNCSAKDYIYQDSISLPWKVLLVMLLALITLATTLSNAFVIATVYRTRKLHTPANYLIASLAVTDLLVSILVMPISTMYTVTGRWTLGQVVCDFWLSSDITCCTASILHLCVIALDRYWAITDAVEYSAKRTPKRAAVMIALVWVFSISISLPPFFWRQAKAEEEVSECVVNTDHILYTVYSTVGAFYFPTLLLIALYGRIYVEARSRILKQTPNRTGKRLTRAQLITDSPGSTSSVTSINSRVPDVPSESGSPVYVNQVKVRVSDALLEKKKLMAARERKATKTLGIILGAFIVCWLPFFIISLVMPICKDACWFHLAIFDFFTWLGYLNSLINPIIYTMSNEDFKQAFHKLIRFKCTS

5-HT transporter (h) = 5-HT transporter (h) (Homo sapiens, UniProt P31645); assay: biochemical; conditions: read-out: % Inhibition of Specific Binding
NMDA = conditions: 10 μM
A2A (h) = A2A (h) (Homo sapiens, UniProt P29274); assay: biochemical; conditions: read-out: % Inhibition of Specific Binding
Chain of A2A (h) (P29274 whole entry): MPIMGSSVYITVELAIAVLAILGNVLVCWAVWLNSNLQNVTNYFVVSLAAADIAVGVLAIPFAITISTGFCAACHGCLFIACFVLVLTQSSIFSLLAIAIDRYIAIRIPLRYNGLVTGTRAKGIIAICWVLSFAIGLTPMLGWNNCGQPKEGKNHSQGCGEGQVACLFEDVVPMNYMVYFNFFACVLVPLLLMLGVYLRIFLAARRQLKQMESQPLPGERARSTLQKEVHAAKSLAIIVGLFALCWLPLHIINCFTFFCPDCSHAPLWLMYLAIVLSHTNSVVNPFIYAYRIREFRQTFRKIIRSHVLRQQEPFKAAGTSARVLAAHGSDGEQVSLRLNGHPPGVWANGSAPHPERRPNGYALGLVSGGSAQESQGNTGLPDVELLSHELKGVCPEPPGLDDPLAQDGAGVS

Ataxin3 = Ataxin3 (Homo sapiens, UniProt P54252); assay: biochemical; conditions: read-out: Percentage inhibition (%)
Chain of Ataxin3 (P54252 whole entry, species assumed): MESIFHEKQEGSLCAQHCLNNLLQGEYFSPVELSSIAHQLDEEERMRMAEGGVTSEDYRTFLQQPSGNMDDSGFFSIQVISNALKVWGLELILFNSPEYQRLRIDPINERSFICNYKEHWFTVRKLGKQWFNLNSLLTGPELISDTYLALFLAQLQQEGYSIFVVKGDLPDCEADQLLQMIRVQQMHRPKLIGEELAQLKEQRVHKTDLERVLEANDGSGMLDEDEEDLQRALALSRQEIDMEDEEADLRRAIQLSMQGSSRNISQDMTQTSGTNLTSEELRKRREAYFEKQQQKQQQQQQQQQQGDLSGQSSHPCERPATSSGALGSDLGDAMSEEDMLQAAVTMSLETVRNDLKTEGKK

5-HT2B (h) = 5-HT2B (h) (Homo sapiens, UniProt P41595); assay: biochemical; conditions: read-out: % Inhibition of Specific Binding
Chain of 5-HT2B (h) (P41595 whole entry): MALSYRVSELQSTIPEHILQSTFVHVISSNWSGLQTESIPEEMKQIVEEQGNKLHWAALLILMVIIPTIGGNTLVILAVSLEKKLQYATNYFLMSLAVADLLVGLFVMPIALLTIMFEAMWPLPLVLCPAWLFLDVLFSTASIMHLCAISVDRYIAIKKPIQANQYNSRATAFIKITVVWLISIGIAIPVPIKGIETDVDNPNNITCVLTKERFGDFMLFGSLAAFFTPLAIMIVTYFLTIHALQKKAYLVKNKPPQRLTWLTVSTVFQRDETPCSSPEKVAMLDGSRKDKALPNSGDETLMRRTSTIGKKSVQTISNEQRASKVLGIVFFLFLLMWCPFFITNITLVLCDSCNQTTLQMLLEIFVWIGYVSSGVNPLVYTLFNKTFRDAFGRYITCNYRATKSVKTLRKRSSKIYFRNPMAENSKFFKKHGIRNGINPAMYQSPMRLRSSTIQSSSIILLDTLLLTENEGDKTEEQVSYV

[2] = biological target: Ubiquitin carboxyl-terminal hydrolase 7 (Homo sapiens, UniProt Q93009); assay: biochemical; conditions: read-out: Percentage inhibition (%)
Chain of Ubiquitin carboxyl-terminal hydrolase 7 (Q93009 whole entry): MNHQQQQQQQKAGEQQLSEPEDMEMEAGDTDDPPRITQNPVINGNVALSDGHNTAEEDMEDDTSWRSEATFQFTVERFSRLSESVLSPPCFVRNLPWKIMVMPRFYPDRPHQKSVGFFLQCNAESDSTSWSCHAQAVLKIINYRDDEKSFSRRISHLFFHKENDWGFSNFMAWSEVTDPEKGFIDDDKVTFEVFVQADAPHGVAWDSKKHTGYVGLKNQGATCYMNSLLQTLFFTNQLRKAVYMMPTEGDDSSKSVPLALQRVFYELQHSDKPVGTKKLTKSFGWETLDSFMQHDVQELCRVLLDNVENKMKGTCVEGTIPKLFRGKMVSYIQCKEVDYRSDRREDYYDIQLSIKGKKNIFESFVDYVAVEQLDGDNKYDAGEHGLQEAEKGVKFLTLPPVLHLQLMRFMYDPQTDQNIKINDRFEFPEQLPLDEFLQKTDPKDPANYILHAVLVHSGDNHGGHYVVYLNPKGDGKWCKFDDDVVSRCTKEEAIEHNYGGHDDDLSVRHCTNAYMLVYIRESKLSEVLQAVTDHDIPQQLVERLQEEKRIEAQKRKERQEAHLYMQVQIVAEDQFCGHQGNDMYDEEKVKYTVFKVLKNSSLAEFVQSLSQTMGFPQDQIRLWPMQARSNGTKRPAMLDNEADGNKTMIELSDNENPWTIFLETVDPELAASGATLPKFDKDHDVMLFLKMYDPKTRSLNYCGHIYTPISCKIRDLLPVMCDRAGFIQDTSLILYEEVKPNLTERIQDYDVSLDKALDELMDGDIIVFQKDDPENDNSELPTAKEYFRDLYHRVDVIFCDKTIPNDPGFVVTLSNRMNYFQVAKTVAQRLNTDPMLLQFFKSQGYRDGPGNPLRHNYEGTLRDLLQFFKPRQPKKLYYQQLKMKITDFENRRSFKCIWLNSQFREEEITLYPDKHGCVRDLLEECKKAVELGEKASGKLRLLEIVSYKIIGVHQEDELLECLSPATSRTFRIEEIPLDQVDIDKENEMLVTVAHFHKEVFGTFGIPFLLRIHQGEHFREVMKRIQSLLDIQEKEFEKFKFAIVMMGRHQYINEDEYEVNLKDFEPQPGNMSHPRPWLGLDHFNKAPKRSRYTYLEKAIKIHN

COX1(h) = COX1(h) (Homo sapiens, UniProt P23219); assay: biochemical; conditions: read-out: % Inhibition of Specific Binding
5-HT2A (h) = 5-HT2A (h) (Homo sapiens, UniProt P28223); assay: biochemical; conditions: read-out: % Inhibition of Specific Binding
Caspase-9 = Caspase-9 (Homo sapiens, UniProt P55211); assay: biochemical; conditions: read-out: Percentage inhibition (%)
Chain of Caspase-9 (P55211 1-315 limits assumed, species assumed): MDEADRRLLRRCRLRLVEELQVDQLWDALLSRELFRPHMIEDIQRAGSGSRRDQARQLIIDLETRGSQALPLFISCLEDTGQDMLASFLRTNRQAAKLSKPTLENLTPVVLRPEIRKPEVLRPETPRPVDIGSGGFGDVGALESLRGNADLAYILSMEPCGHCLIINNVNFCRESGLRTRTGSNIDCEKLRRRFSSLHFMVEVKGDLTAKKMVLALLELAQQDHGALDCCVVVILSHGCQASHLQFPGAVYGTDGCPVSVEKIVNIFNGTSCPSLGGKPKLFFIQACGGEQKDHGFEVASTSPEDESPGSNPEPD
Chain of Caspase-9 (P55211 331-416 limits assumed, species assumed): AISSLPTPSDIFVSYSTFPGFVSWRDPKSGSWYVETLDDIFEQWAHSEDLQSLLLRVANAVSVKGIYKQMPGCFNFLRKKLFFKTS

alpha 1A (h) = biological target: T2, alpha 1A (h) (Homo sapiens, UniProt P35348); assay: biochemical; conditions: read-out: % Inhibition of Specific Binding
T2 sequence (P35348 1-466): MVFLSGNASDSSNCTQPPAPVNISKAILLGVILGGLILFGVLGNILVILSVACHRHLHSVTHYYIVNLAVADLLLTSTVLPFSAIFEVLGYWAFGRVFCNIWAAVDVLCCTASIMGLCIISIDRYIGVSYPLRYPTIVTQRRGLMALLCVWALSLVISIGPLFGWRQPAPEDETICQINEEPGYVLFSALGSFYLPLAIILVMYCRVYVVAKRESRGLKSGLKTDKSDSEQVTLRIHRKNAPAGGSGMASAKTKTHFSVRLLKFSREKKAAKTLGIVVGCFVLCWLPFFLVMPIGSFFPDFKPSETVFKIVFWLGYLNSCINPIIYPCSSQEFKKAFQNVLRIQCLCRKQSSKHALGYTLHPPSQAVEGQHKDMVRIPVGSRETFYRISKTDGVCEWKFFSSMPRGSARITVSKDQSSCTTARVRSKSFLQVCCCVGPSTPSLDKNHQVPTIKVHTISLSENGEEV

ETA (h) = ETA (h) (Homo sapiens, UniProt P25101); assay: biochemical; conditions: read-out: % Inhibition of Specific Binding
[3] = biological target: T3, Matrix metalloprotease 9 (mutant Q279R) (Homo sapiens, UniProt P14780, Q279R); assay: biochemical; conditions: read-out: Percentage inhibition (%)
T3 sequence (P14780 94-707 Q279R): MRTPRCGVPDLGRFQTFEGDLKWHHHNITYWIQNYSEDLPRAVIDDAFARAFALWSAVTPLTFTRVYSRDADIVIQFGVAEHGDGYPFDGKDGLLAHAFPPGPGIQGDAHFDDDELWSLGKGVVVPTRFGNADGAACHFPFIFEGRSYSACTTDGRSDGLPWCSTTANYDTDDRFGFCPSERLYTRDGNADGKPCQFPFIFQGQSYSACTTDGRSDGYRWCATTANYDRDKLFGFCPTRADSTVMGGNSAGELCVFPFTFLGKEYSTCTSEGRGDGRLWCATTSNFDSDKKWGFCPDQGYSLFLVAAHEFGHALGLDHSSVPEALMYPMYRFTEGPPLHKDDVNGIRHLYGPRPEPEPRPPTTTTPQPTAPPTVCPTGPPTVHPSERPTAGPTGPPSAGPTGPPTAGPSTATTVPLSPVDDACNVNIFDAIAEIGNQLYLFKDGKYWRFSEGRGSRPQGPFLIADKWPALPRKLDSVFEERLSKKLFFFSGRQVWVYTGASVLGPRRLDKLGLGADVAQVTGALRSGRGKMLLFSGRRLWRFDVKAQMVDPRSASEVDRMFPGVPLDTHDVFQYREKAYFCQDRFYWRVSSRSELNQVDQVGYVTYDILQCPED

Row | Compound | inhibition at 1 µM (DPP7) [%] | inhibition at 10 µM (DPP7) [%] | inhibition at 10 µM (GR (h)) [%] | inhibition at 10 µM (beta 2 (h)) [%] | inhibition at 1 µM [1] [%] | inhibition at 10 µM [1] [%] | inhibition at 1 µM (Cathepsin F) [%] | inhibition at 10 µM (Cathepsin F) [%] | inhibition at 10 µM (dopamine transporter (h)) [%] | inhibition at 10 µM (5-HT3 (h)) [%] | inhibition at 10 µM (PDE3A (h)) [%] | inhibition at 10 µM (kappa (h) (KOP)) [%] | inhibition at 10 µM (5-HT1B (h)) [%] | inhibition at 10 µM (5-HT transporter (h)) [%] | % Inhibition of Specific Binding (NMDA) [%] | inhibition at 10 µM (A2A (h)) [%] | inhibition at 1 µM (Ataxin3) [%] | inhibition at 10 µM (Ataxin3) [%] | inhibition at 10 µM (5-HT2B (h)) [%] | inhibition at 1 µM [2] [%] | further results
1 | CCCCCC(=O)N[C@H]1CSCc2cc(cc(CN3CCN(C(=O)CN4CCN(CC(=O)O)CCN(CC(=O)O)CCN(CC(=O)O)CC4)CC3)c2)CSC[C@@H](C(=O)N[C@@H](CC(=O)O)C(N)=O)NC(=O)[C@H](Cc2ccccc2)NC(=O)[C@H](CCC(N)=O)NC(=O)[C@H]([C@@H](C)O)NC(=O)[C@@H]2CCCN2C(=O)[C@@H]2CCCN2C1=O [Compound 3BP-3407, Hex-[Cys(tMeBn(DOTA-PP))-Pro-Pro-Thr-Gln-Phe-Cys]-Asp-NH2] (Hexanoyl-CPPTQFCD-NH2; linker 1-7 via X1) | 2 | -3 | -2 | 4 | 0 | -2 | -3 | -24 | 12 | 2 | -3 | 7 | -11 | -3 | 9 | -4 | 1 | 10 | 2 | 5 | inhibition at 10 µM [2]: 5%; inhibition at 10 µM (COX1(h)): 10%; inhibition at 10 µM (5-HT2A (h)): -2%; inhibition at 1 µM (Caspase-9): 5%; inhibition at 10 µM (Caspase-9): 8%; inhibition at 10 µM (alpha 1A (h)): 2%; inhibition at 10 µM (ETA (h)): -18%; inhibition at 1 µM [3]: 3%; inhibition at 10 µM [3]: 2%
2 | CCCCCC(=O)N[C@H]1CSCc2cc(CSCCNC(=O)CN3CCN(CC(=O)O)CCN(CC(=O)O)CCN(CC(=O)O)CC3)cc(c2)CSC[C@@H](C(=O)O)NC(=O)[C@H](Cc2ccccc2)NC(=O)[C@H](CCC(N)=O)NC(=O)[C@H]([C@@H](C)O)NC(=O)[C@@H]2CCCN2C(=O)[C@@H]2CCCN2C1=O [Compound 3BP-3554, Hex-[Cys(tMeBn(DOTA-AET))-Pro-Pro-Thr-Gln-Phe-Cys]-OH] | -1 | -7 | 0 | 8 | -13 | -40 | -23 | -25 | 7 | 4 | -37 | 10 | 8 | -8 | 1 | -16 | 2 | -1 | 3 | 1 | inhibition at 10 µM [2]: 1%; inhibition at 10 µM (COX1(h)): 8%; inhibition at 10 µM (5-HT2A (h)): 4%; inhibition at 1 µM (Caspase-9): -1%; inhibition at 10 µM (Caspase-9): -2%; inhibition at 10 µM (alpha 1A (h)): -12%; inhibition at 10 µM (ETA (h)): 6%; inhibition at 1 µM [3]: 3%; inhibition at 10 µM [3]: 2%
